Patent US20140309265A1, “MACROCYCLIC COMPOUNDS FOR INHIBITION OF INHIBITORS OF APOPTOSIS” (Ensemble Therapeutics, priority 2011, published 2014)
Like-named read-outs stand apart in the source and are kept apart here.

What was measured:
Type in all cases: binding
[1] = target: T1, XIAP His-BIR2 (124-240/C202A/C213G) (Homo sapiens, UniProt P98170, C202A/C213G); experiment: XIAP-BIR2/SMAC Peptide AlphaScreen Assay; conditions: XIAP BIR2, AlphaScreen, Table 2; read-out: BIR2 IC50
T1 construct: additions of His-BIR2 (124-240/C202A/C213G), Biotinylated SMAC peptide
Experimental: A. XIAP-BIR2/SMAC Peptide AlphaScreen Assay Assays were performed in white, flat-bottom, 384-well ProxiPlates (Perkin Elmer). […] The reaction was incubated at room temperature for 60 minutes. After 60 minutes, 2.5 μL of Alphascreen detection reagent (Perkin Elmer) was added to the reaction mixture and incubated at room temperature in the dark for 120 minutes. The Alphascreen signal generated by the reaction was detected on the Envision Plate Reader. […] Compounds were dissolved at 10 mM in dimethylsulfoxide (DMSO) and evaluated at eleven concentrations. IC50 values were derived by non-linear regression analysis.

[2] = target: N-His-Tb-BIR3(241-356, XIAP) (Homo sapiens, UniProt P98170); experiment: XIAP-BIR3 SMAC Peptide Fluorescence Polarization Assay (FPA)
[3] = target: T2, His-BIR2-3 (125-356, C202A/C213G, XIAP) (Homo sapiens, UniProt P98170, C202A/C213G); experiment: XIAP-BIR2-3 Dimeric SMAC Peptide Homogeneous Time Resolved Fluorescence (HTRF) Assay; conditions: XIAP BIR2-3, HTRF, Table 4
T2 construct: additions of His-BIR2-3 (125-356, C202A/C213G, XIAP), fluorescein labeled dimeric SMAC peptide

His-BIR3 (241-356, XIAP) = target: T3, His-BIR3 (241-356, XIAP) (Homo sapiens, UniProt P98170); experiment: XIAP-BIR3/SMAC Homogeneous Time Resolved Fluorescence (HTRF) Assay; conditions: Table 4
T3 construct: additions of His-BIR3 (241-356, XIAP), fluorescein labeled SMAC peptide
T3 sequence (P98170 241-356): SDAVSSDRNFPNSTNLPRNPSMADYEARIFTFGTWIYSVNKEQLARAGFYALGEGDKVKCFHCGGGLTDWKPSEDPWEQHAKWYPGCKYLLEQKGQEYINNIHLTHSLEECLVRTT

T1 sequence (P98170 124-240 C202A/C213G): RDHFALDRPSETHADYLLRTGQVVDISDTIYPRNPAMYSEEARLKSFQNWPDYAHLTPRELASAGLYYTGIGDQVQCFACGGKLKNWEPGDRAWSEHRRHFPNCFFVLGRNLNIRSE
N-His-Tb-BIR3(241-356, XIAP), sequence (P98170 241-356): as the sequence (P98170 241-356) above
T2 sequence (P98170 125-356 C202A/C213G): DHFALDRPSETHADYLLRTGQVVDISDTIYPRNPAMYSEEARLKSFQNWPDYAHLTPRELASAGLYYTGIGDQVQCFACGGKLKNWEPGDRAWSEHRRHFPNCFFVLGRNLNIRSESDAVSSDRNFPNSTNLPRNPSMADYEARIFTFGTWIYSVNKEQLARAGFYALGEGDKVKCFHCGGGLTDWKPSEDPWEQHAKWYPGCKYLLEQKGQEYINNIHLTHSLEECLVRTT

IC50 ([2]; XIAP BIR3, FPA, Table 2, read-out: BIR3 IC50) [nM]	IC50 [3] [nM]	IC50 (His-BIR3 (241-356, XIAP)) [nM]	SMILES	IC50 [1] [nM]	IC50 [2] [nM]
> 100	–	–	CN[C@@H](C)C(=O)N[C@H](C(=O)N1CCc2cn(nn2)CCCOc2ccc(cc2)C[C@@H](C(=O)O)NC(=O)[C@H](Cc2ccccc2)NC(=O)CN(C(=O)[C@@H](NC(=O)[C@H](C)NC)C(C)C)CCc2cn(nn2)CCCOc2ccc(cc2)C[C@@H](C(=O)O)NC(=O)[C@H](Cc2ccccc2)NC(=O)C1)C(C)C [Compound 103]	2000 to 12000	–
–	1 to 10	10 to 100	CN[C@@H](C)C(=O)N[C@H](C(=O)N1C[C@@H]2C[C@H]1C(=O)N[C@@H](Cc1ccc3ccccc3c1)C(=O)N[C@H](C(=O)O)Cc1ccc(cc1)OCc1cn(nn1)[C@H]1C[C@@H](C(=O)N[C@@H](Cc3ccc4ccccc4c3)C(=O)N[C@H](c3n[nH]oc3=O)Cc3ccc(cc3)OCc3cn2nn3)N(C(=O)[C@@H](NC(=O)[C@H](C)NC)C(C)(C)C)C1)C(C)(C)C [Compound 1043]	–	–
–	≤ 1	< 10	CN[C@@H](C)C(=O)N[C@H](C(=O)N1C[C@@H]2C[C@H]1C(=O)N[C@@H](Cc1ccc3ccccc3c1)C(=O)N[C@H](C(=O)O)Cc1ccc(cc1)OCc1cn(nn1)[C@H]1C[C@@H](C(=O)N[C@@H](Cc3ccc4ccccc4c3)C(=O)N[C@H](C(=O)NS(=O)(=O)c3ccncc3)Cc3ccc(cc3)OCc3cn2nn3)N(C(=O)[C@@H](NC(=O)[C@H](C)NC)C(C)(C)C)C1)C(C)(C)C [Compound 1046]	–	–
–	≤ 1	< 10	CN[C@@H](C)C(=O)N[C@H](C(=O)N1C[C@@H]2C[C@H]1C(=O)N[C@@H](Cc1ccc3ccccc3c1)C(=O)N[C@H](C(=O)O)Cc1ccc(cc1)OCc1cn(nn1)[C@H]1C[C@@H](C(=O)N[C@@H](Cc3ccc4ccccc4c3)C(=O)N[C@H](c3nnn[nH]3)Cc3ccc(cc3)OCc3cn2nn3)N(C(=O)[C@@H](NC(=O)[C@H](C)NC)C(C)(C)C)C1)C(C)(C)C [Compound 1048]	–	–
–	1 to 10	> 100	CN[C@@H](C)C(=O)N[C@H](C(=O)N1CCN2CCn3cc(nn3)C[C@@H](C(=O)OC)NC(=O)[C@H](Cc3ccc4ccccc4c3)NC(=O)[C@@H]3CN(CCN3C(=O)[C@@H](NC(=O)[C@H](C)NC)C(C)C)CCn3cc(nn3)C[C@@H](C(=O)O)NC(=O)[C@H](Cc3ccc4ccccc4c3)NC(=O)[C@@H]1C2)C(C)C [Compound 1049]	–	–

The remaining lines, values behind:

SMILES	IC50 ([2]; XIAP BIR3, FPA, Table 2, read-out: BIR3 IC50) [nM]	IC50 [3] [nM]	IC50 (His-BIR3 (241-356, XIAP)) [nM]	IC50 [1] [nM]	IC50 [2] [nM]
CN[C@@H](C)C(=O)N[C@H](C(=O)N1C[C@@H]2C[C@H]1C(=O)N[C@@H](Cc1ccccc1)C(=O)N[C@H](C(=O)O)Cc1ccc(cc1)OCc1cn(nn1)[C@H]1C[C@@H](C(=O)N[C@@H](Cc3ccccc3)C(=O)N[C@H](C(=O)O)Cc3ccc(cc3)OCc3cn2nn3)N(C(=O)[C@@H](NC(=O)[C@H](C)NC)C(C)C)C1)C(C)C [Compound 101]	–	–	–	< 2000	50 to 100
CN[C@@H](C)C(=O)N[C@H](C(=O)N1C[C@@H]2C[C@H]1C(=O)N[C@@H](Cc1ccccc1)C(=O)N[C@@H](C(=O)O)Cc1ccc(cc1)NC(=O)CCc1cn(nn1)[C@H]1C[C@@H](C(=O)N[C@@H](Cc3ccccc3)C(=O)N[C@@H](C(=O)O)Cc3ccc(cc3)NC(=O)CCc3cn2nn3)N(C(=O)[C@@H](NC(=O)[C@H](C)NC)C(C)C)C1)C(C)C [Compound 102]	–	–	–	< 2000	50 to 100
CN[C@@H](C)C(=O)N[C@H](C(=O)N1C[C@@H]2C[C@H]1C(=O)N[C@@H](Cc1ccccc1)C(=O)N[C@H](C(=O)N1CCN(C)CC1)Cc1ccc(cc1)OCc1cn(nn1)[C@H]1C[C@@H](C(=O)N[C@@H](Cc3ccccc3)C(=O)N[C@H](C(=O)N3CCN(C)CC3)Cc3ccc(cc3)OCc3cn2nn3)N(C(=O)[C@@H](NC(=O)[C@H](C)NC)C(C)C)C1)C(C)C [Compound 104]	–	–	–	> 12000	50 to 100
CCN(CC)C(=O)[C@@H]1Cc2ccc(cc2)OCc2cn(nn2)[C@H]2C[C@@H](C(=O)N[C@@H](Cc3ccccc3)C(=O)N[C@H](C(=O)N(CC)CC)Cc3ccc(cc3)OCc3cn(nn3)[C@H]3C[C@@H](C(=O)N[C@@H](Cc4ccccc4)C(=O)N1)N(C(=O)[C@@H](NC(=O)[C@H](C)NC)C(C)C)C3)N(C(=O)[C@@H](NC(=O)[C@H](C)NC)C(C)C)C2 [Compound 105]	–	–	–	> 12000	50 to 100
CN[C@@H](C)C(=O)N[C@H](C(=O)N1C[C@@H]2C[C@H]1C(=O)N[C@@H](Cc1ccccc1)C(=O)N[C@H](C(=O)NCCN(C)C)Cc1ccc(cc1)OCc1cn(nn1)[C@H]1C[C@@H](C(=O)N[C@@H](Cc3ccccc3)C(=O)N[C@H](C(=O)NCCN(C)C)Cc3ccc(cc3)OCc3cn2nn3)N(C(=O)[C@@H](NC(=O)[C@H](C)NC)C(C)C)C1)C(C)C [Compound 106]	–	–	–	> 12000	50 to 100
CN[C@@H](C)C(=O)N[C@H](C(=O)N1C[C@@H]2C[C@H]1C(=O)N[C@@H](CCc1ccccc1)C(=O)N[C@H](C(=O)O)Cc1ccc(cc1)OCc1cn(nn1)[C@H]1C[C@@H](C(=O)N[C@@H](CCc3ccccc3)C(=O)N[C@H](C(=O)O)Cc3ccc(cc3)OCc3cn2nn3)N(C(=O)[C@@H](NC(=O)[C@H](C)NC)C(C)C)C1)C(C)C [Compound 107]	–	–	–	< 2000	> 100
CN[C@@H](C)C(=O)N[C@@H](CC1CCCCC1)C(=O)N1C[C@@H]2C[C@H]1C(=O)N[C@@H](Cc1ccccc1)C(=O)N[C@H](C(=O)O)Cc1ccc(cc1)OCc1cn(nn1)[C@H]1C[C@@H](C(=O)N[C@@H](Cc3ccccc3)C(=O)N[C@H](C(=O)O)Cc3ccc(cc3)OCc3cn2nn3)N(C(=O)[C@H](CC2CCCCC2)NC(=O)[C@H](C)NC)C1 [Compound 109]	–	–	–	< 2000	< 50
CN[C@@H](C)C(=O)N[C@H](C(=O)N1C[C@@H]2C[C@H]1C(=O)N[C@@H](Cc1ccccc1)C(=O)NCc1cn(nn1)[C@H]1C[C@@H](C(=O)N[C@@H](Cc3ccccc3)C(=O)NCc3cn2nn3)N(C(=O)[C@@H](NC(=O)[C@H](C)NC)C(C)C)C1)C(C)C [Compound 116]	–	–	–	< 2000	–
CN[C@@H](C)C(=O)N[C@H](C(=O)N1C[C@@H]2CC1C(=O)N[C@@H](Cc1ccccc1)C(=O)N[C@H](C(=O)O)Cc1ccc(cc1)OCc1cn(nn1)[C@H]1C[C@@H](C(=O)N[C@@H](Cc3ccccc3)C(=O)NCc3cn2nn3)N(C(=O)[C@@H](NC(=O)[C@H](C)NC)C(C)C)C1)C(C)C [Compound 135]	–	–	–	< 2000	–
CN[C@@H](C)C(=O)N[C@H](C(=O)N1C[C@@H]2C[C@H]1C(=O)N[C@@H](Cc1ccc3ccccc3c1)C(=O)N[C@H](C(=O)O)Cc1ccc(cc1)OCc1ccc(cc1)-c1cn(nn1)[C@H]1C[C@@H](C(=O)N[C@@H](Cc3ccc4ccccc4c3)C(=O)N[C@H](C(=O)O)Cc3ccc(cc3)OCc3cn2nn3)N(C(=O)[C@@H](NC(=O)[C@H](C)NC)C(C)(C)C)C1)C(C)(C)C [Compound 1000]	–	–	–	–	50 to 100
CN[C@@H](C)C(=O)N[C@H](C(=O)N1C[C@@H]2C[C@H]1C(=O)N[C@@H](Cc1ccc3ccccc3c1)C(=O)N[C@H](C(=O)O)Cc1ccc(cc1)OCc1cn(nn1)[C@H]1C[C@@H](C(=O)N[C@@H](Cc3ccc4ccccc4c3)C(=O)N[C@H](C(=O)NCC[C@@H](O)C[C@@H](O)CC(=O)O)Cc3ccc(cc3)OCc3cn2nn3)N(C(=O)[C@@H](NC(=O)[C@H](C)NC)C(C)(C)C)C1)C(C)(C)C [Compound 1044]	–	1 to 10	< 10	–	–
CN[C@@H](C)C(=O)N[C@H](C(=O)N1C[C@@H]2C[C@H]1C(=O)N[C@@H](Cc1ccc3ccccc3c1)C(=O)N[C@H](C(=O)O)Cc1ccc(cc1)OCc1cn(nn1)[C@H]1C[C@@H](C(=O)N[C@@H](Cc3ccc4ccccc4c3)C(=O)N[C@H](C(=O)NS(=O)(=O)CCCC(=O)O)Cc3ccc(cc3)OCc3cn2nn3)N(C(=O)[C@@H](NC(=O)[C@H](C)NC)C(C)(C)C)C1)C(C)(C)C [Compound 1045]	–	≤ 1	< 10	–	–
CN[C@@H](C)C(=O)NC(C(=O)N1C[C@@H]2C[C@H]1C(=O)N[C@@H](Cc1ccc3ccccc3c1)C(=O)N[C@H](c1nc(=O)o[nH]1)Cc1ccc(cc1)OCc1cn(nn1)[C@H]1C[C@@H](C(=O)N[C@@H](Cc3ccc4ccccc4c3)C(=O)N[C@H](C(=O)O)Cc3ccc(cc3)OCc3cn2nn3)N(C(=O)[C@@H](NC(=O)[C@H](C)NC)C(C)(C)C)C1)C(C)(C)C (stereo partly shown) [Compound 1047]	–	≤ 1	< 10	–	–
CN[C@@H](C)C(=O)N[C@H](C(=O)N1CCN2C[C@H]1C(=O)N[C@@H](Cc1ccc3ccccc3c1)C(=O)N[C@H](C(=O)O)Cc1cn(nn1)CC(=O)N1CCN(C(=O)[C@@H](NC(=O)[C@H](C)NC)C(C)(C)C)[C@@H](C1)C(=O)N[C@@H](Cc1ccc3ccccc3c1)C(=O)N[C@H](C(=O)O)Cc1cn(nn1)CC2=O)C(C)(C)C [Compound 1051]	–	> 10	> 100	–	–
CN[C@@H](C)C(=O)N[C@H](C(=O)N1C[C@@H]2C[C@H]1C(=O)N[C@@H](Cc1ccc3ccccc3c1)C(=O)N[C@H](C(=O)O)Cc1ccc(cc1)OCc1cn(nn1)[C@H]1C[C@@H](C(=O)N[C@@H](Cc3ccc4ccccc4c3)C(=O)N[C@H](C(=O)NS(=O)(=O)CCCNC(C)=O)Cc3ccc(cc3)OCc3cn2nn3)N(C(=O)[C@@H](NC(=O)[C@H](C)NC)C(C)(C)C)C1)C(C)(C)C [Compound 1052]	–	≤ 1	< 10	–	–
